Reference: US20150087627A1, “COMBINATION OF KINASE INHIBITORS AND USES THEREOF” (Intellikine LLC, priority 2011, published 2015)
Like-named read-outs stand apart in the source and are kept apart here.

Assays:
Format in all cases: biochemical
PI3K δ = target: T1, PI3K δ (Homo sapiens, UniProt O00329); experiment: PI 3-Kinase (human) HTRF assay, PI3K δ; settings: read-out: PI3K δ IC50
T1 construct: purchased Upstate / Millipore Corporation

PI3K α (p110α/p85α) = target: T2, PI3K α (p110α/p85α) (Homo sapiens, UniProt P42336); experiment: PI 3-Kinase (human) HTRF assay, PI3K α; settings: read-out: PI3K α IC50
T2 construct: purchased Upstate / Millipore Corporation

PI3K β (p110β/p85α) = target: T3, PI3K β (p110β/p85α) (Homo sapiens, UniProt P42338); experiment: PI 3-Kinase (human) HTRF assay, PI3K β; settings: read-out: PI3K β IC50
T3 construct: purchased Upstate / Millipore Corporation

PI3K γ (p110γ) = target: T4, PI3K γ (p110γ) (Homo sapiens, UniProt P48736); experiment: PI 3-Kinase (human) HTRF assay, PI3K γ
T4 construct: purchased Upstate / Millipore Corporation
T4 sequence (P48736 whole entry): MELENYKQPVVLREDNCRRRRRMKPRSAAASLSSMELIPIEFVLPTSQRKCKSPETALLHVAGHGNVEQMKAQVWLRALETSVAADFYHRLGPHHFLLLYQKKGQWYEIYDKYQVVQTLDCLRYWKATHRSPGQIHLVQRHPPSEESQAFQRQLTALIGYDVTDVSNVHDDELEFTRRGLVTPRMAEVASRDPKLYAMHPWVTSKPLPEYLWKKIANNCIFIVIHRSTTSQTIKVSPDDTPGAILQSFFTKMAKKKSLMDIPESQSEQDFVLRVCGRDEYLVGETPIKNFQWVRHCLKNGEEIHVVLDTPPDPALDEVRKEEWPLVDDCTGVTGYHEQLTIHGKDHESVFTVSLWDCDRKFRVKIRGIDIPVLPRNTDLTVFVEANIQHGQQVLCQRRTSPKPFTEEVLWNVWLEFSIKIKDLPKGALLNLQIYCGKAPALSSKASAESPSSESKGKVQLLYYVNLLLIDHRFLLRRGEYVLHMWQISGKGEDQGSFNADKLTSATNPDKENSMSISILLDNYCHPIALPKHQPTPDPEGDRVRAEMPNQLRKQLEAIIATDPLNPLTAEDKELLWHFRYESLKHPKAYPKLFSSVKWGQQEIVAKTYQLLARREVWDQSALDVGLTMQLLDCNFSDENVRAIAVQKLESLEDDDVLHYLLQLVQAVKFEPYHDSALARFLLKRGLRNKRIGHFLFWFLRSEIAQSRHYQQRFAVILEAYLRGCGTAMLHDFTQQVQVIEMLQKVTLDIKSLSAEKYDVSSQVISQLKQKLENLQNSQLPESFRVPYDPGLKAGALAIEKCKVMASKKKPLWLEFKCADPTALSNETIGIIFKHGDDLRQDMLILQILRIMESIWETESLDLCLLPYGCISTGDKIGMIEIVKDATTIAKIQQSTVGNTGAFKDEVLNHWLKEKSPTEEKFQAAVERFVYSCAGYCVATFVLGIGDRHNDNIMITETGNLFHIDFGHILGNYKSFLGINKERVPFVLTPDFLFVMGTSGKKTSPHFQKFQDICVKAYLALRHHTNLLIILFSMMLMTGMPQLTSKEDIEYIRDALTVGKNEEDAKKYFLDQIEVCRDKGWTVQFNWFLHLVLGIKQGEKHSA

T2 sequence (P42336 whole entry): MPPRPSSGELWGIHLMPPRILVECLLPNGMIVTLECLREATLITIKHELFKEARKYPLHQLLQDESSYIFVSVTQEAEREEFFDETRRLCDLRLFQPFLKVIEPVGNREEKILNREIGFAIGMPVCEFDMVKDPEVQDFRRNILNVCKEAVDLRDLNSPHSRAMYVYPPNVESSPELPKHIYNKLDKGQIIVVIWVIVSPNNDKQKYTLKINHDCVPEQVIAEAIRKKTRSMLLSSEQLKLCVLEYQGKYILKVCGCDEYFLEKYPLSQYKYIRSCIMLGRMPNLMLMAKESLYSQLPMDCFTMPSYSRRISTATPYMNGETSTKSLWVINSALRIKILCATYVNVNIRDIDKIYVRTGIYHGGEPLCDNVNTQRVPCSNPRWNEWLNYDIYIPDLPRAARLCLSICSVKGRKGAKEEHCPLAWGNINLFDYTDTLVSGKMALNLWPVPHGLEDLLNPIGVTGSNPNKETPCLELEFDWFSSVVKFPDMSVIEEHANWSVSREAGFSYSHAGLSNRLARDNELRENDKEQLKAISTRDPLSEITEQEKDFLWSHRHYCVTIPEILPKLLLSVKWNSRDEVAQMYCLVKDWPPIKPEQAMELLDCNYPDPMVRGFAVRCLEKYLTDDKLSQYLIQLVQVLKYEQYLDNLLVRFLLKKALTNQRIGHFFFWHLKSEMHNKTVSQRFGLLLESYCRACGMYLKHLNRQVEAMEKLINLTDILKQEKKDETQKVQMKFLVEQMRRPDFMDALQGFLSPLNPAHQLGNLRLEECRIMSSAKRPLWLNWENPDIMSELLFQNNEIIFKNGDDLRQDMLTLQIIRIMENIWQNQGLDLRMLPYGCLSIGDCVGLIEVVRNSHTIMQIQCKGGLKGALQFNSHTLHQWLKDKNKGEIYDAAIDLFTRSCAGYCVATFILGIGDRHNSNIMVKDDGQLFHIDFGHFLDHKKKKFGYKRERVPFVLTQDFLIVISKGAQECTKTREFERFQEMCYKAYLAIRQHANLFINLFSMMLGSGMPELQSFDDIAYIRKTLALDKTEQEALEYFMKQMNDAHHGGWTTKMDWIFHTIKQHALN
T2 sequence (P27986 whole entry partner): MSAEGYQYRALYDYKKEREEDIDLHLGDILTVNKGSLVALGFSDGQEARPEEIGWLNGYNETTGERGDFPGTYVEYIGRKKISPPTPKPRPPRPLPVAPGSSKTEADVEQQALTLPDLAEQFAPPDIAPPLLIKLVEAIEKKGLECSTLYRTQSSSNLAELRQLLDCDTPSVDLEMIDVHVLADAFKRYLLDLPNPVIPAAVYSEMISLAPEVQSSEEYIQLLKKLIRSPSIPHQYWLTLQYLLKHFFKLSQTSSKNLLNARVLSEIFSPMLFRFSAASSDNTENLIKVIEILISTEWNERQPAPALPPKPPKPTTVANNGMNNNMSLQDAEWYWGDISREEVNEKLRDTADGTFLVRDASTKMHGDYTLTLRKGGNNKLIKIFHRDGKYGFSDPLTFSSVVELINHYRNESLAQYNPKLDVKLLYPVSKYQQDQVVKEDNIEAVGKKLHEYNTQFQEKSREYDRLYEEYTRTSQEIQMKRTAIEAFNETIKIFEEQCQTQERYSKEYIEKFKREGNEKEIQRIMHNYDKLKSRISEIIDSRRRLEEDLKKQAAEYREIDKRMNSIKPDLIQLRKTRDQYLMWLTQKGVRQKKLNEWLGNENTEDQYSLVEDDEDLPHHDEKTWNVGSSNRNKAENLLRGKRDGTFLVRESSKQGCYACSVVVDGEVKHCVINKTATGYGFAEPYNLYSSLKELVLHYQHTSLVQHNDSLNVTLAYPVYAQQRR
T1 sequence (O00329 whole entry): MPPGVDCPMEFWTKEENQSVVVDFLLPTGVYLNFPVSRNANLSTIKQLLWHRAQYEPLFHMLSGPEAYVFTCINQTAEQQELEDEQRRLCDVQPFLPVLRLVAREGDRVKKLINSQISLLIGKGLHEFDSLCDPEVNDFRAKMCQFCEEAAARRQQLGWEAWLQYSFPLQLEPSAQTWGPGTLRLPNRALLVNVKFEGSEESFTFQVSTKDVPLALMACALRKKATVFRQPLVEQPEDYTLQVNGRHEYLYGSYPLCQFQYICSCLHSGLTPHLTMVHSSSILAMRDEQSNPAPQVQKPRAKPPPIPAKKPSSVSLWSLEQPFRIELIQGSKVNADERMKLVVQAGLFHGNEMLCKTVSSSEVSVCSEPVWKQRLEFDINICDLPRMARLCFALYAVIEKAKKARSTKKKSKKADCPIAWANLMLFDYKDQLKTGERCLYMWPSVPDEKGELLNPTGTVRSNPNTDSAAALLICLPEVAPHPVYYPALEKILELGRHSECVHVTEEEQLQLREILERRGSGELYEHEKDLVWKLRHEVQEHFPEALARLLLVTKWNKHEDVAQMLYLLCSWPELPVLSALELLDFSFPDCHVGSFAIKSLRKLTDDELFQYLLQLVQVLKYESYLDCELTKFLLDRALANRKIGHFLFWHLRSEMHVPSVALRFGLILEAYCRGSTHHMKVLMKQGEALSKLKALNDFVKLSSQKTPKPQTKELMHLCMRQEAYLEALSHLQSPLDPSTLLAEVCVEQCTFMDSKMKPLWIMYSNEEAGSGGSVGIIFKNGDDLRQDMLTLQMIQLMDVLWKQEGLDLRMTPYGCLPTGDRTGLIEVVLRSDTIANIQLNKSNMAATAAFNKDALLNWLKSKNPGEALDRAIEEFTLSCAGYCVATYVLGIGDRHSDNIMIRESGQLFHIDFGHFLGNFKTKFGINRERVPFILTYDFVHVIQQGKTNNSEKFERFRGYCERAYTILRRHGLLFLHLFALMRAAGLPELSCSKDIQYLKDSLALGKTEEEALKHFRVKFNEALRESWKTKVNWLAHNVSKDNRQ
T1 sequence (P27986 whole entry partner): as the sequence (P27986 whole entry partner) above
T3 sequence (P42338 whole entry): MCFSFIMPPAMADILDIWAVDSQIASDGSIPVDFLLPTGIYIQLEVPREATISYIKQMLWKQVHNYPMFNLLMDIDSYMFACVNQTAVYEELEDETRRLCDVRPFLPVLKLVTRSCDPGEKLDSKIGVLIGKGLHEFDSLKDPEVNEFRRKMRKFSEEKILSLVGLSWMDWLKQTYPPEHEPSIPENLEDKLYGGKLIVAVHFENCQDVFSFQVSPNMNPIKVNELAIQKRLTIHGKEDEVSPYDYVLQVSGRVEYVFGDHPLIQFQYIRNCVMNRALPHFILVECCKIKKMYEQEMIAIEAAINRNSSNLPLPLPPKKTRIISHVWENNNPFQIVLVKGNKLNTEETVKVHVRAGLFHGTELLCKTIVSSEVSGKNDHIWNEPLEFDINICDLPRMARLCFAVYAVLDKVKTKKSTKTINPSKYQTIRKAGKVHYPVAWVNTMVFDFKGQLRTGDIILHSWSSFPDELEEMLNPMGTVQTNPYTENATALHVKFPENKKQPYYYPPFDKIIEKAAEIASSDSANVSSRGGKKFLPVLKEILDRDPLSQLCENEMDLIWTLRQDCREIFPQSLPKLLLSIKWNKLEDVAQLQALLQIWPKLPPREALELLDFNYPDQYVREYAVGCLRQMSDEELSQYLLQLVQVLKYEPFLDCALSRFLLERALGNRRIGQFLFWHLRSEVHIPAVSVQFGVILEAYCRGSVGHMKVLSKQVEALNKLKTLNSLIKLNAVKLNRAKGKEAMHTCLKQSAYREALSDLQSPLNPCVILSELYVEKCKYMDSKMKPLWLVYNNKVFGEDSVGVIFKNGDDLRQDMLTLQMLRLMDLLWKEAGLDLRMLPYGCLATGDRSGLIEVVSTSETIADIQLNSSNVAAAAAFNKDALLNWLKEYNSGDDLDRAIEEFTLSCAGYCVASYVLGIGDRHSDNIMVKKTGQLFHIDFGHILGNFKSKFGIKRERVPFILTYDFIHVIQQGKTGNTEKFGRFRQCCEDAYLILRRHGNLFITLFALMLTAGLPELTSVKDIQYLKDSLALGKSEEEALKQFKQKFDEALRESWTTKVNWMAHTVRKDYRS
T3 sequence (P27986 whole entry partner): as the sequence (P27986 whole entry partner) above

IC50 (PI3K δ) [µM]	IC50 (PI3K α (p110α/p85α)) [µM]	IC50 (PI3K β (p110β/p85α)) [µM]	IC50 (PI3K γ (p110γ); read-out: PI3K γ IC50) [nM]	Structure (SMILES)	IC50 (PI3K γ (p110γ); PI3K γ IC50 (nM)) [nM]
< 10	< 0.1	< 10	< 100	Nc1nc2cc(-c3ccc4ncc(C(=O)N5CCC5)n4c3)ccc2o1 [Compound 197]	–
> 10	> 10	> 10	> 10000	Nc1nc2cc(-c3cnc4ncc(-c5ccncc5)n4c3)ccc2o1 [Compound 61]	–
> 10	< 0.1	< 1	< 10000	Nc1nc2cc(-c3ccc4ncc(C(=O)N5CCn6cncc6C5)n4c3)ccc2o1 [Compound 493]	–
< 1	< 1	< 10	< 1000	Nc1nc2cc(-c3ccc4ncc(N5CC[C@H](N6CCOCC6)C5)nc4c3)ccc2o1 [Compound 375]	–
< 0.1	< 0.1	< 0.1	< 100	CC(=O)N1CCC(Nc2ncnc3ccc(-c4ccc5oc(N)nc5c4)nc23)CC1 [Compound 211]	–
< 1	< 0.1	< 1	< 1000	Nc1nc2cc(-c3ccc4ncc(C(=O)NCCO)n4c3)ccc2o1 [Compound 189]	–
> 10	< 1	< 10	< 10000	Nc1nc2cc(-c3ccc4ncc(C(=O)N(CCO)CCO)n4c3)ccc2o1 [Compound 316]	–
< 0.1	< 0.1	< 0.1	< 1000	COc1ncc(-c2ccc3ncn(C4CCN(C)CC4)c(=O)c3c2)cc1NS(=O)(=O)c1ccccc1 [Compound 524]	–
> 10	< 10	> 10	> 10000	CS(=O)(=O)Nc1cc(-c2ccc3ncc(C(=O)N4CCOCC4)n3c2)ccc1Cl [Compound 460]	–
> 10	> 10	> 10	> 10000	Cc1cc(-c2ccc3nc(N)oc3c2)cn2c(CN3CCN(C)CC3)nnc12 [Compound 549]	–
< 1	< 0.1	< 10	< 1000	Nc1nc2cc(-c3ccc4ncc(N5CC(C(=O)N6CCN(CC7CC7)CC6)C5)nc4c3)ccc2o1 [Compound 287]	–
< 10	< 1	< 10	> 10000	CN1CCC(N(C)C(=O)c2cnc3ccc(-c4ccc5oc(N)nc5c4)cn23)CC1 [Compound 165]	–
> 10	< 0.1	< 0.1	< 10000	CN1CCN(c2cnc3ccc(-c4ccc5nc(N)sc5c4)cc3n2)CC1 [Compound 115]	–
> 10	< 1	< 10	< 10000	CN1CCN(C(=O)c2cnn3ccc(-c4ccc5oc(N)nc5c4)cc23)CC1 [Compound 380]	–
> 10	> 10	> 10	> 10000	Nc1nc2cc(-c3cn4c(C(=O)N5CCOCC5)cnc4cn3)ccc2o1 [Compound 122]	–
> 10	< 10	> 10	< 10000	CNc1noc2cc(-c3ccc4ncc(C(=O)N5CCOCC5)n4c3)ccc12 [Compound 486]	–
> 10	< 1	< 1	< 10000	Nc1nc2cc(-c3ccc4ncc(N5CCOCC5)n4n3)ccc2o1 [Compound 57]	–
> 10	< 1	> 10	< 10000	Cc1ccn(C2CCN(C(=O)c3cnc4ccc(-c5ccc6oc(N)nc6c5)cn34)CC2)n1 [Compound 297]	–
< 0.1	< 0.1	< 10	< 100	CS(=O)(=O)CCN1CCC(NC(=O)c2cnc3ccc(-c4ccc5oc(N)nc5c4)cn23)CC1 [Compound 199]	–
> 10	< 0.1	> 10	< 1000	Nc1nc2cc(-c3ccc4ncc(N5CCC(n6cccn6)CC5)nc4c3)ccc2o1 [Compound 337]	–
< 10	< 1	< 10	> 10000	Nc1nc2cc(-c3ccc4ncn(CCCN5CCCC5)c(=O)c4c3)ccc2o1 [Compound 271]	–

IC50 (PI3K δ) [µM]	IC50 (PI3K α (p110α/p85α)) [µM]	IC50 (PI3K β (p110β/p85α)) [µM]	IC50 (PI3K γ (p110γ); read-out: PI3K γ IC50) [nM]	Structure (SMILES)	IC50 (PI3K γ (p110γ); PI3K γ IC50 (nM)) [nM]
< 0.1	< 0.1	< 0.1	< 100	O=C(c1cnc2ccc(-c3cnc(Cl)c(NS(=O)(=O)c4cccc(F)c4)c3)cn12)N1CCOCC1 [Compound 458]	–
> 10	> 10	> 10	> 10000	Nc1nc2cc(-c3ccc4ncc(S(=O)(=O)N5CCOCC5)n4c3)ccc2o1 [Compound 109]	–
> 10	< 1	> 10	< 1000	Nc1nc2cc(-c3ccc4ncc(C(=O)N5CC5)n4c3)ccc2o1 [Compound 340]	–
> 10	> 10	> 10	> 10000	CN1CCN(CCc2nnc3ccc(-c4ccc5nc(N)oc5c4)cn23)CC1 [Compound 545]	–
< 0.1	< 0.1	< 1	< 100	CS(=O)(=O)N1CCC(Nc2ncnc3ccc(-c4ccc5oc(N)nc5c4)cc23)CC1 [Compound 87]	–
> 10	< 1	> 10	> 10000	Cc1c(-c2ccc3oc(N)nc3c2)ccc2ncc(N3CC(N4CCOCC4)C3)nc12 [Compound 383]	–
> 10	< 0.1	> 10	< 100	Nc1nc2cc(-c3ccc4ncc(C(=O)N5CC(F)(F)C5)n4c3)ccc2o1 [Compound 473]	–
> 10	> 10	> 10	> 10000	Nc1noc2cc(-c3ccc4ncc(C(=O)N5CCOCC5)n4c3)ccc12 [Compound 488]	–
> 10	> 10	> 10	> 10000	CN1CCN(c2nnc3ccc(-c4ccc5nc(N)oc5c4)cn23)CC1 [Compound 542]	–
< 10	< 0.1	< 10	< 1000	C[C@H]1CN(C(=O)C2CN(c3cnc4ccc(-c5ccc6oc(N)nc6c5)cc4n3)C2)CCN1 [Compound 268]	–
> 10	< 1	< 1	> 10000	CC1CN(C(=O)c2cnc3ccc(-c4ccc5oc(N)nc5c4)cn23)CCN1 (centres unmarked) [Compound 164]	–
> 10	> 10	> 10	> 10000	CNc1nsc2cc(-c3ccc4ncc(C(=O)N5CCOCC5)n4c3)ccc12 [Compound 497]	–
> 10	< 1	< 10	> 10000	CCN1CCC(n2cnc3ccc(-c4ccc5oc(N)nc5c4)cc3c2=O)CC1 [Compound 73]	–
< 10	< 0.1	> 10	< 1000	Nc1nc2cc(-c3ccc4ncc(C(=O)N5CC(n6cccn6)C5)n4c3)ccc2o1 [Compound 479]	–
< 1	< 0.1	> 10	< 1000	COc1ncc(-c2ccc3ncc(C(=O)N4CCOCC4)n3c2)cc1NS(=O)(=O)c1ccccc1 [Compound 420]	–
< 1	< 0.1	< 1	< 1000	CN1CC2CN(C(=O)c3cnc4ccc(-c5ccc6oc(N)nc6c5)cn34)CC2C1 (centres unmarked) [Compound 533]	–
< 1	< 0.1	< 1	< 1000	CN1CCC(Nc2ncnc3ccc(-c4ccc5oc(N)nc5c4)nc23)CC1 [Compound 212]	–
< 10	< 1	< 10	< 10000	CC(=O)NC1CCN(C(=O)c2cnc3ccc(-c4ccc5oc(N)nc5c4)cn23)CC1 [Compound 147]	–
< 1	< 0.1	< 1	< 1000	CC(C)(C)N1CCN(c2cnc3ccc(-c4ccc5oc(N)nc5c4)cc3n2)CC1 [Compound 182]	–
< 10	< 0.1	< 0.1	< 1000	CCN1CCN(c2cnc3ccc(-c4ccc5oc(N)nc5c4)cc3n2)CC1 [Compound 152]	–

Structure (SMILES)	IC50 (PI3K δ) [µM]	IC50 (PI3K α (p110α/p85α)) [µM]	IC50 (PI3K β (p110β/p85α)) [µM]	IC50 (PI3K γ (p110γ); read-out: PI3K γ IC50) [nM]	IC50 (PI3K γ (p110γ); PI3K γ IC50 (nM)) [nM]
CO[C@@H]1CCN(C(=O)c2cnc3ccc(-c4ccc5oc(N)nc5c4)cn23)C1 [Compound 464]	> 10	< 0.1	> 10	< 1000	–
CC(C)N1CCC(Nc2ncnc3ccc(-c4ccc5oc(N)nc5c4)cc23)CC1 [Compound 101]	< 1	< 0.1	< 10	< 10000	–
Nc1noc2ccc(-c3ccc4nccc(-c5ccncc5)c4c3)cc12 [Compound 18]	> 10	< 10	> 10	< 10000	–
Nc1nc2cc(-c3ccc4ncc(N5CCN(C(=O)[C@H]6CCCN6)CC5)nc4c3)ccc2o1 [Compound 225]	< 0.1	< 0.1	< 0.1	< 100	–
Nc1nc2cc(-c3ccc4ncc(C(=O)N5CCC(N6CCC(F)(F)C6)C5)n4c3)ccc2o1 (centres unmarked) [Compound 500]	< 10	< 1	> 10	< 10000	–
Nc1ncc(-c2ccc3ncc(C(=O)N4CCOCC4)n3c2)cc1C(F)(F)F [Compound 410]	> 10	< 10	> 10	> 10000	–
Nc1nc2cc(-c3ccn4ncc(-c5ccncc5)c4c3)ccc2o1 [Compound 356]	< 0.1	< 0.1	< 0.1	< 100	–
Nc1nc2cc(-c3ccc4ncc(C(=O)N5C6CCC5COC6)n4c3)ccc2o1 [Compound 480]	< 10	< 0.1	> 10	–	< 1000
CS(=O)(=O)N1CCN(c2cnc3ccc(-c4ccc5oc(N)nc5c4)cc3n2)CC1 [Compound 86]	< 1	< 0.1	< 1	< 100	–
